Experimental data reported in patent publication US11690902B2 (priority 2018, dated 2023).
Entries after “also recorded” stand apart in the source; their conditions may differ.

What was measured:
[1] = system: human PBMCs of individuals naturally exposed to C. burnetii; assay type: cell-based
[2] = system: splenocytes from tgHLA-DR3 mice; settings: in vivo; for # of mice responding: mouse
DRB1*0301 = biological target: T1, DRB1*0301 (Homo sapiens, UniProt P01903+P01911, A100K/A102G/A103R/A169T/F55Y/I96L/K41T/L162R/M171V/P40S/Q125H/Q178H/Q39Y/R42S/S66N/T106N/T262R/W38E/Y61H); assay: HLA class II competition binding assay, DRB1*0301; settings: peptides immunogenic in tgHLA-DR3 mice
T1 construct: purchased Benaroya Institute, Seattle, Wash

## AENVLIIHNKTLAHRYLA [p31]
[1]
  Highly antigenic / highly reactive peptide in the human cohort: highly reactive
[2]
  SFU, Mouse 1/3: 0
  SFU, Mouse 2/3: 14
  SFU, Mouse 3/3: 84
  SI (stimulation index), Mouse 1/3: 0.88
  SI (stimulation index), Mouse 2/3: 1.72
  SI (stimulation index), Mouse 3/3: 4.32
  # of mice responding: 1

## AIYFIGWYANLAHIKLGIS [p9]
[1]
  Recognition of HLA class II peptide by any subject: not recognized by any subject

## DGRLEQLNSQNQQLQ [p33]
[1]
  Donors recognizing peptides recognized only within group C: single
  Donors recognizing peptides recognized solely by past asymptomatic subjects: 1/33
  Human immunoreactive in at least one IGRA+ donor (category): at least one IGRA + donor

## DHAYKLAVSSTKSMT [p42]
[1]
  Donors recognizing peptides recognized solely by past asymptomatic subjects: 3/33

## DQRITQLKNLNSNNSDSSNDN [p49]
[1]
  Recognition of HLA class II peptide by any subject: not recognized by any subject

## EAVYKGFTPLKAEDIAEA [p19]
[1]
  Highly antigenic / highly reactive peptide in the human cohort: highly antigenic

## EHTIVVNASASEAAALQ [p10]
[1]
  Donors recognizing peptides recognized only within group C: multiple donors
  Human immunoreactive in at least one IGRA+ donor (category): at least one IGRA + donor
[2]
  SFU, Mouse 1/3: 256
  SFU, Mouse 2/3: 82
  SFU, Mouse 3/3: 43
  SI (stimulation index), Mouse 1/3: 5.80
  SI (stimulation index), Mouse 2/3: 4.51
  SI (stimulation index), Mouse 3/3: 2.00
  # of mice responding: 2

## FTFRSQDSRRVQEW [p13]
[1]
  Donors recognizing peptides recognized solely by past asymptomatic subjects: 1/33
  Human immunoreactive in at least one IGRA+ donor (category): at least one IGRA + donor

## GLSWLTILKKRNNYRDSFN [p44]
[1]
  Human immunoreactive in at least one IGRA+ donor (category): at least one IGRA + donor

## GVAYTYNRANAGLPTNK [p45]
[1]
  Highly antigenic / highly reactive peptide in the human cohort: highly antigenic
  Number of IGRA+ subjects recognizing the peptide: 7/56
  Proportion of IGRA+ donors with IFNγ recall response to the peptide, SI cutoff of 2: 12.5%

## IARYFMVNISQLIGEE [p21]
[1]
  Number of IGRA+ subjects recognizing the peptide: 8/56
  Number of IGRA− subjects recognizing the peptide: 3/21
  Proportion of IGRA+ donors with IFNγ recall response to the peptide, SI cutoff of 2: 14.3%
  Recall response frequency in IGRA− donors: 14.3%

## IDHLQQMTRQQVAMQTHK [p36]
[1]
  Human immunoreactive in at least one IGRA+ donor (category): at least one IGRA + donor
DRB1*0301
  Binding to DRB1*0301 in vitro: all except one (p36) also showed binding
[2]
  SFU, Mouse 1/3: 52
  SFU, Mouse 2/3: 55
  SFU, Mouse 3/3: 0
  SI (stimulation index), Mouse 1/3: 3.44
  SI (stimulation index), Mouse 2/3: 3.86
  SI (stimulation index), Mouse 3/3: 0.86
  # of mice responding: 2

## IKGWQEALTRMKPGAIWEI [p8]
[1]
  Human immunoreactive in at least one IGRA+ donor (category): at least one IGRA + donor

## ISLLVFKNSHRVQLWAK [p28]
[1]
  Donors recognizing peptides recognized solely by past asymptomatic subjects: 1/33
  Human immunoreactive in at least one IGRA+ donor (category): at least one IGRA + donor
[2]
  SFU, Mouse 1/3: 63
  SFU, Mouse 2/3: 54
  SFU, Mouse 3/3: 41
  SI (stimulation index), Mouse 1/3: 3.76
  SI (stimulation index), Mouse 2/3: 3.79
  SI (stimulation index), Mouse 3/3: 2.63
  # of mice responding: 2

## KDDILEAVANMSVMDV [p3]
[1]
  Donors recognizing peptides recognized only within group C: single
  Human immunoreactive in at least one IGRA+ donor (category): at least one IGRA + donor

## LAQYRELEAFSQFAS [p5]
[1]
  Human immunoreactive in at least one IGRA+ donor (category): at least one IGRA + donor

## LKDVVALRNQAQTAK [p41]
[1]
  Human immunoreactive in at least one IGRA+ donor (category): at least one IGRA + donor
[2]
  SFU, Mouse 1/3: 87
  SFU, Mouse 2/3: 30
  SFU, Mouse 3/3: 0
  SI (stimulation index), Mouse 1/3: 5.06
  SI (stimulation index), Mouse 2/3: 2.55
  SI (stimulation index), Mouse 3/3: 0.98
  # of mice responding: 1

## LKPFHFISSPTRDLQIA [p16]
[1]
  Highly antigenic / highly reactive peptide in the human cohort: highly reactive
  Human immunoreactive in at least one IGRA+ donor (category): at least one IGRA + donor
[2]
  SFU, Mouse 1/3: 180
  SFU, Mouse 2/3: 27
  SFU, Mouse 3/3: 19
  SI (stimulation index), Mouse 1/3: 8.94
  SI (stimulation index), Mouse 2/3: 2.05
  SI (stimulation index), Mouse 3/3: 1.94
  # of mice responding: 1

## LSSIIHKLTSFSKTEA [p38]
[1]
  Highly antigenic / highly reactive peptide in the human cohort: highly antigenic

## MMEHLQNITNLVSTGRQGA [p15]
[1]
  Highly antigenic / highly reactive peptide in the human cohort: highly antigenic

## NAGIIRNKLKIQATIN [p43]
[1]
  Donors recognizing peptides recognized solely by past asymptomatic subjects: 3/33
[2]
  SFU, Mouse 1/3: 135
  SFU, Mouse 2/3: 65
  SFU, Mouse 3/3: 116
  SI (stimulation index), Mouse 1/3: 4.88
  SI (stimulation index), Mouse 2/3: 3.04
  SI (stimulation index), Mouse 3/3: 4.48
  # of mice responding: 3

## PAKINLARTYIAMED [p34]
[1]
  Recognition of HLA class II peptide by any subject: not recognized by any subject

## PDYVLNAVNHIRYKP [p14]
[1]
  Highly antigenic / highly reactive peptide in the human cohort: highly reactive; also recorded: highly antigenic
[2]
  SFU, Mouse 1/3: 157
  SFU, Mouse 2/3: 371
  SFU, Mouse 3/3: 11
  SI (stimulation index), Mouse 1/3: 7.94
  SI (stimulation index), Mouse 2/3: 20.21
  SI (stimulation index), Mouse 3/3: 1.42
  # of mice responding: 2

## PITKKQLKTMSNYEVIAK [p11]
[1]
  Recognition of HLA class II peptide by any subject: not recognized by any subject

## QELEVAQNKAMSDFM [p39]
[1]
  Human immunoreactive in at least one IGRA+ donor (category): at least one IGRA + donor

## QGHIINIGSISSHQV [p18]
[1]
  Highly antigenic / highly reactive peptide in the human cohort: highly antigenic

## QNAFQLQETIVSTEN [p40]
[1]
  Recognition of HLA class II peptide by any subject: not recognized by any subject

## REAVLFLVTIKELLEDP [p23]
[1]
  Highly antigenic / highly reactive peptide in the human cohort: highly antigenic
[2]
  SFU, Mouse 1/3: 69
  SFU, Mouse 2/3: 21
  SFU, Mouse 3/3: 63
  SI (stimulation index), Mouse 1/3: 2.30
  SI (stimulation index), Mouse 2/3: 1.89
  SI (stimulation index), Mouse 3/3: 2.47
  # of mice responding: 2

## RLGFMSFFTKAVVEALKRF [p22]
[1]
  Highly antigenic / highly reactive peptide in the human cohort: highly reactive; also recorded: highly antigenic

## SDMWQALLAGKSGVK [p25]
[1]
  Donors recognizing peptides recognized solely by past asymptomatic subjects: 3/33
  Human immunoreactive in at least one IGRA+ donor (category): at least one IGRA + donor

## SEQITLQTAEKVGLNVA [p1]
[1]
  Donors recognizing peptides recognized only within group C: multiple donors
  Human immunoreactive in at least one IGRA+ donor (category): at least one IGRA + donor

## SHEVLHAMSRGVEVLA [p6]
[1]
  Donors recognizing peptides recognized only within group C: multiple donors

## SRAFLTANKNKPGVKT [p7]
[1]
  Human immunoreactive in at least one IGRA+ donor (category): at least one IGRA + donor

## TGEIVKMINQAKQSIYVQG [p32]
[1]
  Human immunoreactive in at least one IGRA+ donor (category): at least one IGRA + donor
[2]
  SFU, Mouse 1/3: 64
  SFU, Mouse 2/3: 70
  SFU, Mouse 3/3: 28
  SI (stimulation index), Mouse 1/3: 3.82
  SI (stimulation index), Mouse 2/3: 4.62
  SI (stimulation index), Mouse 3/3: 2.11
  # of mice responding: 2

## TPTFVIGNKALTKFGF [p2]
[1]
  Highly antigenic / highly reactive peptide in the human cohort: highly reactive
[2]
  SFU, Mouse 1/3: 120
  SFU, Mouse 2/3: 141
  SFU, Mouse 3/3: 18
  SI (stimulation index), Mouse 1/3: 6.63
  SI (stimulation index), Mouse 2/3: 8.28
  SI (stimulation index), Mouse 3/3: 1.53
  # of mice responding: 2

## VAKLRGDLSSIIHKL [p37]
[1]
  Highly antigenic / highly reactive peptide in the human cohort: highly antigenic

## VARVSRLKDNFVVLEISKGTEITVQ [p29]
[1]
  Donors recognizing peptides recognized solely by past asymptomatic subjects: 1/33
  Human immunoreactive in at least one IGRA+ donor (category): at least one IGRA + donor

## VFNITLQKVMAPELPVL [p35]
[1]
  Recognition of HLA class II peptide by any subject: not recognized by any subject

## VPGYRNASSKRFVAP [p46]
[1]
  Highly antigenic / highly reactive peptide in the human cohort: highly antigenic
